Laboratory results as given in patent publication US12173018B2, “Penicillin-binding protein inhibitors” (priority 2018, dated 2024).
Where two headings read alike, the source gives them in different places.

Assays:
[1] = biological target: E. coli PBP3 (Escherichia coli (strain K12), UniProt P0AD68); assay: E. coli PBP3 Bocillin-FL fluorescence polarization competition binding assay
Excerpt: To determine the ability of boronic acid-based test PBP inhibitors to bind Penicillin Binding Proteins (PBPs), Bocillin-FL (fluorescently-labeled penicillin V; ThermoFisher Scientific) was used in a fluorescence polarization (FP) competition binding assay to assess inhibitor binding to PBP2, PBP3 or PBP4 from Escherichia coli. PBPs were cloned and purified as described previously (King, D. T, et al., ACS Infectious Diseases 2015, 1, 175-184). To establish assay conditions for competition binding, an enzyme titration/saturation binding experiment was initially performed. Bocillin-FL was prepared at 0.2 μM in a buffer comprised of 50 mM Hepes (pH 8.0), 300 mM NaCl and 5% (v/v) glycerol. Saturation binding was performed by mixing 40 μl of PBP solutions ranging in concentrations from 0-12 μM with 40 μl of the 0.2 μM Bocillin-FL solution, in individual wells of a black 384-well microplate. FP was measured immediately upon mixing (Excitation, 490 nm; Emission, 520 nm; g-factor, 0.96), using a Cytation3 (BioTek) microplate reader and measured continuously for up to 120 minutes. […] Assays (80 μl final volume) were performed with PBPs at a final concentration of 1.5 μM, Bocillin-FL at 0.1 μM and beta-lactam concentrations that ranged from 0-1000 μM. […] Bocillin-FL was added and the FP immediately measured for 60 minutes (90 minutes for PBP2). The beta-lactam potency was reported as the concentration of beta-lactam required to reduce binding of Bocillin-FL by […] (EC50). […] Binding assays for boronic acid PBP inhibitors were performed in an identical fashion.

[2] = system: E. coli 901C; assay: microbe, parasite or virus in culture; assay type: cell-based; details: Escherichia coli; hyper-permeable E. coli 901C, broth microdilution; read-out: MIC E. coli 901C
Description: (§1) To determine the ability of test compounds to potentiate the inhibition of the growth of bacterial strains, classic cell based broth microdilution minimum inhibitory concentration (MIC) assays were employed. MIC assays are performed according to CLSI methods except where otherwise noted (CLSI, 2011 and CLSI, 2009). The reference type strain E. coli ATCC 25922, the wild-type parent strain E. coli AG100, the hyper-permeable E. coli 901C and E. coli D22 and the E. coli AG100A strain lacking the acrAB efflux pump encoding genes were used to determine the ability of the PBP inhibitors to penetrate the outer membrane of gram-negative bacteria and inhibit bacterial growth. […] The P. aeruginosa PAO1, P. aeruginosa ATCC 27853 and A. baumannii ATCC 19606, along with the hyper-permeable P. aeruginosa ATCC 35151 and an engineered efflux pump-compromised strain of P. aeruginosa (ΔmexAB-oprM) were used to determine the ability of PBP inhibitors to penetrate the outer membrane of P. aeruginosa and A. baumannii and assess antibacterial activity against these important gram-negative organisms.
(§2) Briefly, cryo-preserved bacterial cultures of challenge strains are streaked for isolation on appropriate agar medium, in this case Mueller Hinton II agar. Following incubation to allow growth of the colonies, plates are sealed with parafilm and stored refrigerated for up to two weeks. For preparation of assay inoculum and to ensure low variability, at least 5 colonies are picked from the agar plates with an inoculating loop and aseptically transferred to a culture tube containing 3 mL of Mueller-Hinton Broth (supplemented with divalent cations to required levels based on Manufacturers' certification). The broth culture is grown for 3-5 hours at 37° C. with shaking at 200 rpm. Meanwhile, 2-fold serial dilutions of test compounds are conducted in a 96 well plate with a final volume of 75 μL per well at 2-fold the final desired concentration. After the dilution plates are set up the growing cultures are then diluted in a cuvette containing MH II broth and the optical density is measured at 600 nm. The Inoculum is diluted such that 75 μL of this culture in Mueller-Hinton Broth results in a starting bacterial concentration of 5×10^5 CFU/mL when added to the dilution plates. The plates are incubated for 16-20 hours at 37° C. The MIC values are read visually as the lowest concentration well with no bacterial growth.

[3] = system: K. pneumoniae UMM; assay: microbe, parasite or virus in culture; assay type: cell-based; details: Klebsiella pneumoniae; K. pneumoniae UMM producing SHV-5 and KPC-2; read-out: MIC K. pneumoniae UMM
Description: as §1, §2

[4] = system: E. coli D22; assay: microbe, parasite or virus in culture; assay type: cell-based; details: Escherichia coli; hyper-permeable E. coli D22, broth microdilution; read-out: MIC E. coli D22
Description: as §1, §2

[5] = system: K. pneumoniae SI-117; assay: microbe, parasite or virus in culture; assay type: cell-based; details: Klebsiella pneumoniae, SI117, read-out: MIC K. pneumoniae SI-117
Description: as §1, §2

[6] = system: E. coli AG100A; assay: microbe, parasite or virus in culture; assay type: cell-based; details: Escherichia coli, read-out: MIC E. coli AG100A
Description: as §1, §2

[7] = system: E. coli AG100; assay: Broth microdilution MIC, E. coli AG100 (wild-type parent); assay type: cell-based; details: Escherichia coli; wild-type parent E. coli AG100, broth microdilution; read-out: MIC E. coli AG100
Description: To determine the ability of test compounds to potentiate the inhibition of the growth of bacterial strains, classic cell based broth microdilution minimum inhibitory concentration (MIC) assays were employed.
as §2

[8] = system: K. pneumoniae 848844; assay: microbe, parasite or virus in culture; assay type: cell-based, Klebsiella pneumoniae; details: Klebsiella pneumoniae; K. pneumoniae 848844 producing SHV-11 and KPC-2; read-out: MIC K. pneumoniae 848844
Description: as §1, §2

[9] = system: E. coli ATCC 25922; assay: Broth microdilution MIC, E. coli ATCC 25922; assay type: cell-based; details: Escherichia coli
Description: as §1, §2

[10] = ATCC25922, E. coli ATCC 25922, broth microdilution, read-out: MIC E. coli 25922

Chain of E. coli PBP3 (P0AD68 whole entry): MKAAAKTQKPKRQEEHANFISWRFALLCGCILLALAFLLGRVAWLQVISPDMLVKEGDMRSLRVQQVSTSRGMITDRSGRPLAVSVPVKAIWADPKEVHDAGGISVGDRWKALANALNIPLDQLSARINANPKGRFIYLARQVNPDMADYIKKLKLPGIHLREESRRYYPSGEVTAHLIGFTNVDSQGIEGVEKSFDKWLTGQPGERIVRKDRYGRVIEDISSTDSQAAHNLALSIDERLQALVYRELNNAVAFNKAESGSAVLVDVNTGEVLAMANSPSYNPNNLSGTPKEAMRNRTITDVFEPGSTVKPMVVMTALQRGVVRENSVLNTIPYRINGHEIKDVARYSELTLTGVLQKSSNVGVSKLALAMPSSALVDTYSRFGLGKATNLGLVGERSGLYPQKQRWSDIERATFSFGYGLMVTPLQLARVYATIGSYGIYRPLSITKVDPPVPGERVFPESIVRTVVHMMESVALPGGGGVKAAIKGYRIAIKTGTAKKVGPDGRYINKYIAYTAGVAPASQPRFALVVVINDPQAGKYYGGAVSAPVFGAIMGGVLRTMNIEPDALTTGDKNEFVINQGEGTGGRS

Row | Compound | EC50 [1] [µM] | MIC [2] [µg/mL] | MIC [3] [µg/mL] | MIC [4] [µg/mL] | MIC [5] [µg/mL] | MIC [6] [µg/mL] | MIC [7] [µg/mL] | MIC [8] [µg/mL] | MIC [9, 10] [µg/mL] | EC50 ([1]; fluorescence polarization competition binding with Bocillin-FL, read-out: E. coli K12 PBP3 Potency) [µM] | MIC ([9]; ATCC25922, read-out: MIC E. coli 25922) [µg/mL]
1 | CCN1CCN(C(=O)NC(C(=O)N[C@H]2Cc3cccc(C(=O)O)c3OB2O)c2ncccc2F)C(=O)C1=O (stereo partly drawn) [Example 162, (3R)-3-(2-(4-ethyl-2,3-dioxopiperazine-1-carboxamido)-2-(3-fluoropyridin-2-yl)acetamido)-2-hydroxy-3,4-dihydro-2H-benzo[e][1,2]oxaborinine-8-carboxylic acid] | 30 to 500 | 0.5 to 1 | 32 to 64 | 8 to 16 | 32 to 64 | 2 to 4 | 32 to 64 | > 128 | 32 to 64 | – | –
2 | CCN1CCN(C(=O)N[C@H](C(=O)N[C@H]2Cc3cccc(C(=O)O)c3OB2O)c2ccc(S(N)(=O)=O)c(O)c2)C(=O)C1=O [Example 166, (R)-3-((S)-2-(4-ethyl-2,3-dioxopiperazine-1-carboxamido)-2-(3-hydroxy-4-sulfamoylphenyl)acetamido)-2-hydroxy-3,4-dihydro-2H-benzo[e][1,2]oxaborinine-8-carboxylic acid] | 30 to 500 | < 0.25 | 32 to 64 | 2 to 4 | > 128 | 2 to 4 | 32 to 64 | > 128 | 32 to 64 | – | –
3 | CCN1CCN(C(=O)N[C@@H](C(=O)N[C@H]2Cc3cccc(C(=O)O)c3OB2O)c2ccc(S(N)(=O)=O)c(O)c2)C(=O)C1=O [Example 167, (R)-3-((R)-2-(4-ethyl-2,3-dioxopiperazine-1-carboxamido)-2-(3-hydroxy-4-sulfamoylphenyl)acetamido)-2-hydroxy-3,4-dihydro-2H-benzo[e][1,2]oxaborinine-8-carboxylic acid] | – | < 0.25 | 32 to 64 | 2 to 4 | > 128 | 2 to 4 | 32 to 64 | > 128 | 32 to 64 | < 30 | –
4 | CCN1CCN(C(=O)N[C@H](C(=O)N[C@H]2Cc3cccc(C(=O)O)c3OB2O)c2ccc(S(N)(=O)=O)c(OC)c2)C(=O)C1=O [Example 168, (R)-3-((S)-2-(4-ethyl-2,3-dioxopiperazine-1-carboxamido)-2-(3-methoxy-4-sulfamoylphenyl)acetamido)-2-hydroxy-3,4-dihydro-2H-benzo[e][1,2]oxaborinine-8-carboxylic acid] | 30 to 500 | 0.5 to 1 | > 128 | 8 to 16 | > 128 | 8 to 16 | > 128 | > 128 | > 128 | – | –
5 | NS(=O)(=O)c1ccc([C@H](NC(=O)N2CCN(CCBr)C(=O)C2=O)C(=O)N[C@H]2Cc3cccc(C(=O)O)c3OB2O)cc1O [Example 171, (R)-3-((S)-2-(4-(2-bromoethyl)-2,3-dioxopiperazine-1-carboxamido)-2-(3-hydroxy-4-sulfamoylphenyl)acetamido)-2-hydroxy-3,4-dihydro-2H-benzo[e][1,2]oxaborinine-8-carboxylic acid] | 30 to 500 | 0.5 to 1 | 32 to 64 | 0.5 to 1 | > 128 | 8 to 16 | 32 to 64 | > 128 | – | – | 32 to 64
